Our source for the IC50 values is patent US9994594B2, “Inhibitors of arginase and their therapeutic applications” (MARS, INCORPORATED, priority 2010, dated 2018).

pIC50: −log10 of the molar value. Counter-ions that a name gives are not always drawn.

The target of one test is T1, arginase II (ARG II) (Homo sapiens, UniProt P78540).
T1 sequence (P78540 23-354): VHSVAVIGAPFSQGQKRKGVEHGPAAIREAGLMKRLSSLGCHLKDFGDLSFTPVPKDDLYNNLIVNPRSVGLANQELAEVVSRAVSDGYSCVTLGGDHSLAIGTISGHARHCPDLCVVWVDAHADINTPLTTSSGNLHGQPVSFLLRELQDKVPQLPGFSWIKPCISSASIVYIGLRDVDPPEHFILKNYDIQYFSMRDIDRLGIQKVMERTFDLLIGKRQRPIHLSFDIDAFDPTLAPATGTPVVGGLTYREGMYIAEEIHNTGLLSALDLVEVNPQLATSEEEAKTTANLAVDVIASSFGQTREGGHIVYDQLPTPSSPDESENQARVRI
Nature of the test: Inhibition of arginase II, spectrophotometric urea assay at 530 nm. In kind it is biochemical. The conditions noted are these: Formula II compounds, Table 2-A; read-out: Potency (ARG). As to the method: (§1) The assay established the concentration of inhibitor that is required to reduce arginase activity by 50% (IC50).
(§2) Inhibition of arginase I (ARG I) and arginase II (ARG II) by Formula I and Formula II compounds is followed spectrophotometrically at 530 nm. The compound to be tested is dissolved in DMSO at an initial concentration 50-fold greater than its final concentration in the cuvette. 10 μl of the stock solution is diluted in 90 μl of the assay buffer that comprises 0.1M sodium phosphate buffer containing 130 mM NaCl, pH 7.4, to which is added ovalbumin (OVA) at a concentration of 1 mg/ml. Solutions of arginase I and II are prepared in 100 mM sodium phosphate buffer, pH 7.4 containing 1 mg/ml of OVA to give an arginase stock solution at a final concentration of 100 ng/ml.
(§3) To each well of a 96-well microtiter plate is add 40 μl of enzyme, 10 μl of an inventive compound and 10 μl of enzyme substrate (L-arginine+manganese sulfate). For wells that are used as positive controls, only the enzyme and its substrate are added, while wells used as negative controls contain only manganese sulfate.
(§4) After incubating the microtiter plate at 37° C. for 60 minutes, 150 μl of a urea reagent obtained by combining equal proportions (1:1) of reagents A and B is added to each well of the microtiter plate to stop the reaction. The urea reagent is made just before use by combining Reagent A (10 mM o-phthaldialdehyde, and 0.4% polyoxyethylene (23) lauryl ether (w/v) in 1.8 M sulfuric acid) with Reagent B (1.3 mM primaquine diphosphate, 0.4% polyoxyethylene (23) lauryl ether (w/v), 130 mM boric acid in 3.6 M sulfuric acid). After quenching the reaction mixture, the microtiter plate is allowed to stand for an additional 10 minutes at room temperature to allow color development. The inhibition of arginase is computed by measuring the optical density (OD) of the reaction mixture at 530 nm and normalizing the OD value to percent inhibition observed in the control. The normalized OD is then used to generate a dose-response curve by plotting the normalized OD values against log [concentration] and using regression analysis to compute the IC50 values.

For another test, the target named is T2, human arginase I (ARG I) (Homo sapiens, UniProt P05089).
T2 sequence (P05089 1-322): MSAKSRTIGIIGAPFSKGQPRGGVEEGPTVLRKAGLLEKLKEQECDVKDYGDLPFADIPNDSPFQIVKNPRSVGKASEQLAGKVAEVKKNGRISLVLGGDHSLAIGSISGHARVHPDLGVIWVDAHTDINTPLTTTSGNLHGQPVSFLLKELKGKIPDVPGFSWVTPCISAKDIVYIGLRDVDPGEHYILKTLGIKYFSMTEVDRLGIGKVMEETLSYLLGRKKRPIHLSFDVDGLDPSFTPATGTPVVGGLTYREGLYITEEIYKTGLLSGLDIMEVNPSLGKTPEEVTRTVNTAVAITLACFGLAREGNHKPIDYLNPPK
Briefly: Inhibition of arginase I, spectrophotometric urea assay at 530 nm. In kind it is biochemical. The conditions noted are these: Formula II compounds, Table 2-A; read-out: Potency (ARG I). On the procedure:
as §1, §2, §3, §4

With `NC(CCCCB(O)O)(C(=O)O)C1CCN(C(=S)NCc2ccc(Cl)cc2)CC1` (centres unmarked) [Example 43-A, 2-amino-6-borono-2-(1-(4-chlorobenzylcarbamothioyl)piperidin-4-yl)hexanoic acid], the values for the pIC50 on arginase II (ARG II) and at human arginase I (ARG I) were 5.70 to 6.00 and 6.00 to 6.60, respectively.
For `Cc1ccc(NC(=S)N2CCC(C(N)(CCCCB(O)O)C(=O)O)CC2)cc1Cl` (centres unmarked) [Example 44-A, 2-amino-6-borono-2-(1-(3-chloro-4-methylphenylcarbamothioyl)piperidin-4-yl)hexanoic acid], in that order: 5.70 to 6.00 and 6.00 to 6.60.
With `NC(CCCCB(O)O)(C(=O)O)C1CCN(C(=S)Nc2cccc3ccccc23)CC1` (centres unmarked) [Example 45-A, 2-amino-6-borono-2-(1-(naphthalen-1-ylcarbamothioyl)piperidin-4-yl)hexanoic acid], the pIC50 at arginase II (ARG II) is 5.70 to 6.00; at human arginase I (ARG I) it was 6.00 to 6.60.
For the compound `NC(CCCCB(O)O)(C(=O)O)C1CCN(CCCc2ccc(Cl)cc2)CC1` (centres unmarked) [Example 46-A, 2-amino-6-borono-2-(1-(3-(4-chlorophenyl)propyl)piperidin-4-yl)hexanoic acid], the pIC50 at arginase II (ARG II) and on human arginase I (ARG I) was 6.60 to 10.00 throughout.
As to `NC(CCCCB(O)O)(C(=O)O)C1CCN(CCc2ccc(Cl)cc2Cl)CC1` (centres unmarked) [Example 47-A, 2-amino-6-borono-2-(1-(2,4-dichlorophenethyl)piperidin-4-yl)hexanoic acid], the pIC50 was 6.00 to 6.60 on arginase II (ARG II) and 6.60 to 10.00 on human arginase I (ARG I).
Regarding `NC(CCCCB(O)O)(C(=O)O)C1CCN(Cc2ccc(F)c(F)c2)CC1` (centres unmarked) [Example 48-A, 2-amino-6-borono-2-(1-(3,4-difluorobenzyl)piperidin-4-yl)hexanoic acid], the pIC50 is 6.00 to 6.60 at arginase II (ARG II) and 6.60 to 10.00 at human arginase I (ARG I).
`NC(CCCCB(O)O)(C(=O)O)C1CCN(Cc2ccc(Cl)c(F)c2)CC1` (centres unmarked) [Example 49-A, 2-amino-6-borono-2-(1-(4-chloro-3-fluorobenzyl)piperidin-4-yl)hexanoic acid]: the pIC50 on arginase II (ARG II) was 6.60 to 10.00; at human arginase I (ARG I) it was 6.00 to 6.60.
As to `NC(CCCCB(O)O)(C(=O)O)C1CCN(CCCc2cc(F)cc(Cl)c2)CC1` (centres unmarked) [Example 50-A, 2-amino-6-borono-2-(1-(3-(3-chloro-5-fluorophenyl)propyl)piperidin-4-yl)hexanoic acid], the pIC50 was 6.00 to 6.60 at arginase II (ARG II) and 6.60 to 10.00 at human arginase I (ARG I).
Take `NC(CCCCB(O)O)(C(=O)O)C1CCN(Cc2ccc(F)c3ccccc23)CC1` (centres unmarked) [Example 51-A, 2-amino-6-borono-2-(1-((4-fluoronaphthalen-1-yl)methyl)piperidin-4-yl)hexanoic acid]: the pIC50 is 6.00 to 6.60 at arginase II (ARG II) and 6.60 to 10.00 at human arginase I (ARG I).
As to `NC(CCCCB(O)O)(C(=O)O)C1CCN(CCCc2ccc(F)cc2F)CC1` (centres unmarked) [Example 52-A, 2-amino-6-borono-2-(1-(3-(2,4-difluorophenyl)propyl)piperidin-4-yl)hexanoic acid dihydrochloride], the pIC50 at arginase II (ARG II) and at human arginase I (ARG I) was 6.60 to 10.00 in each case.
Consider `NC(CCCCB(O)O)(C(=O)O)C1CCN(Cc2ccccc2C(F)(F)F)CC1` (centres unmarked) [Example 53-A, 2-amino-6-borono-2-(1-(2-(trifluoromethyl)benzyl)piperidin-4-yl)hexanoic acid dihydrochloride], for which the pIC50 on arginase II (ARG II) and on human arginase I (ARG I) was 6.00 to 6.60 throughout.
As to `NC(CCCCB(O)O)(C(=O)O)C1CCN(Cc2ccccc2N2CCOCC2)CC1` (centres unmarked) [Example 54-A, 2-amino-6-borono-2-(1-(2-morpholinobenzyl)piperidin-4-yl)hexanoic acid dihydrochloride], the values for the pIC50 at arginase II (ARG II) and on human arginase I (ARG I) were 6.00 to 6.60 and 6.60 to 10.00, respectively.
For `NC(CCCCB(O)O)(C(=O)O)C1CCN(Cc2ccccc2-c2ccccc2)CC1` (centres unmarked) [Example 55-A, 2-amino-2-(1-(biphenyl-2-ylmethyl)piperidin-4-yl)-6-boronohexanoic acid dihydrochloride] the same measures were 6.60 to 10.00 and 6.60 to 10.00.
Take `NC(CCCCB(O)O)(C(=O)O)C1CCN(Cc2cccc3cccnc23)CC1` (centres unmarked) [Example 56-A, 2-amino-6-borono-2-(1-(quinolin-8-ylmethyl)piperidin-4-yl)hexanoic acid dihydrochloride]: the pIC50 was 6.00 to 6.60 at arginase II (ARG II) and 6.60 to 10.00 at human arginase I (ARG I).
For `NC(CCCCB(O)O)(C(=O)O)C1CCN(Cc2ccccc2-c2cccnc2)CC1` (centres unmarked) [Example 57-A, 2-amino-6-borono-2-(1-(2-(pyridin-3-yl)benzyl)piperidin-4-yl)hexanoic acid dihydrochloride], in that order: 6.00 to 6.60 and 6.60 to 10.00.
`COc1cccc(-c2ccccc2CN2CCC(C(N)(CCCCB(O)O)C(=O)O)CC2)c1` (centres unmarked) [Example 58-A, 2-amino-6-borono-2-(1-((3′-methoxybiphenyl-2-yl)methyl)piperidin-4-yl)hexanoic acid dihydrochloride]: the pIC50 at arginase II (ARG II) is 6.00 to 6.60; on human arginase I (ARG I) it was 6.60 to 10.00.
For `NC(CCCCB(O)O)(C(=O)O)C1CCN(CCc2ccc(F)c(F)c2)CC1` (centres unmarked) [Example 59-A, 2-amino-6-borono-2-(1-(3,4-difluorophenethyl)piperidin-4-yl)hexanoic acid acid dihydrochloride] the same measures were 6.60 to 10.00 and 6.60 to 10.00.
For `NC(CCCCB(O)O)(C(=O)O)C1CCN(Cc2cccc3c2OCCC3)CC1` (centres unmarked) [Example 60-A, 2-amino-6-borono-2-(1-(chroman-8-ylmethyl)piperidin-4-yl)hexanoic acid dihydrochloride] the same measures were 6.60 to 10.00 and 6.60 to 10.00.
For `Cc1cc(CN2CCC(C(N)(CCCCB(O)O)C(=O)O)CC2)n(C)n1` (centres unmarked) [Example 62-A, 2-amino-6-borono-2-(1-((1,3-dimethyl-1H-pyrazol-5-yl)methyl)piperidin-4-yl)hexanoic acid dihydrochloride] the same measures were 6.00 to 6.60 and 6.00 to 6.60.
On to `NC(CCCCB(O)O)(C(=O)O)C1CCN(CCCc2ccc(C(F)(F)F)cc2)CC1` (centres unmarked) [Example 63-A, 2-amino-6-borono-2-(1-(3-(4-(trifluoromethyl)phenyl)propyl)piperidin-4-yl)hexanoic acid acid dihydrochloride], for which the pIC50 on arginase II (ARG II) and at human arginase I (ARG I) was 6.60 to 10.00 each time.
As to `NC(CCCCB(O)O)(C(=O)O)C1CCN(Cc2ccc(Oc3ccc(Cl)c(Cl)c3)cc2)CC1` (centres unmarked) [Example 64-A, 2-amino-6-borono-2-(1-(4-(3,4-dichlorophenoxy)benzyl)piperidin-4-yl)hexanoic acid dihydrochloride], the pIC50 on arginase II (ARG II) and at human arginase I (ARG I) was 6.60 to 10.00 in each case.
Turning to `NC(CCCCB(O)O)(C(=O)O)C1CCN(Cc2cccc(Cn3cccn3)c2)CC1` (centres unmarked) [Example 65-A, 2-(1-(3-((1H-pyrazol-1-yl)methyl)benzyl)piperidin-4-yl)-2-amino-6-boronohexanoic acid dihydrochloride], the pIC50 on arginase II (ARG II) and at human arginase I (ARG I) was 6.60 to 10.00 throughout.
On to `NC(CCCCB(O)O)(C(=O)O)C1CCN(CCCc2ccc(Cl)cc2Cl)CC1` (centres unmarked) [Example 66-A, 2-amino-6-borono-2-(1-(3-(2,4-dichlorophenyl)propyl)piperidin-4-yl)hexanoic acid dihydrochloride], for which the pIC50 at arginase II (ARG II) and at human arginase I (ARG I) was 6.60 to 10.00 throughout.
For the compound `NC(CCCCB(O)O)(C(=O)O)[C@@H]1CCN(Cc2ccccc2)C1` (stereo partly drawn) [Example 67-A, 2-amino-2-((R)-1-benzylpyrrolidin-3-yl)-6-boronohexanoic acid dihydrochloride], the pIC50 at arginase II (ARG II) and on human arginase I (ARG I) was 6.00 to 6.60 each time.
With `NC(CCCCB(O)O)(C(=O)O)[C@H]1CCN(Cc2ccccc2)C1` (stereo partly drawn) [Example 68-A, 2-amino-2-((S)-1-benzylpyrrolidin-3-yl)-6-boronohexanoic acid dihydrochloride], the pIC50 on arginase II (ARG II) and on human arginase I (ARG I) was 6.00 to 6.60 each time.
